According to US10258602B2 (Ocera Therapeutics, Inc., priority 2007, dated 2019):

Experiments:
[1] = tested on: rat stomach fundus strips; assay: tissue or blood; details: read-out: EC50 values for contractility
Protocol: Fundus strips (approximately 0.4×1 cm) were cut from the stomach of adult male Wistar rats parallel to the circular muscle fibers. They were placed between two platinum ring electrodes, 1 cm apart (Radnoti, ADInstruments, USA) in 10 ml tissue baths containing Krebs solution bubbled with 5% CO2 in O2 and maintained at 37° C. Tissues were suspended under 1.5 g resting tension. Changes of tension were measured isometrically with force transducers and recorded with a PowerLab 8/30 data acquisition system (ADInstruments, USA). Tissues were allowed to equilibrate for 60 min during which time bath solutions were changed every 15 min.
EFS was achieved by applying 0.5 ms pulses, 5 Hz frequency, at a maximally effective voltage of 70 V. EFS was applied for 30 sec at 3 min intervals for a 30 min initial period. This initial period was separated by a 5 min interval with wash out of the bath solution. Then, a second period of stimulation was started. […] Responses to the agents were measured and expressed as % of the mean of three or four pre-drug responses to EFS. All compounds were dissolved at 1 mM in distilled water or MeOH, as stock solutions.

[2] = Pharmacokinetic analysis (oral bioavailability, elimination half-life) in the rat; format: in vivo
Excerpt: D. Pharmacokinetic Analysis of Representative Compounds of the Invention
The pharmacokinetic behavior of compound of the invention can be ascertained by methods well known to those skilled in the art. (Wilkinson, G. R. “Pharmacokinetics: The Dynamics of Drug Absorption, Distribution, and Elimination” in Goodman & Gilman's The Pharmacological Basis of Therapeutics, Tenth Edition, Hardman, J. G.; Limbird, L. E., Eds., McGraw Hill, Columbus, Ohio, 2001, Chapter 1.) The following method was used to investigate the pharmacokinetic parameters (elimination half-life, total plasma clearance, etc.) for intravenous, subcutaneous and oral administration of compounds of the present invention. See also U.S. patent application Ser. No. 11/149,512 and Ser. No. 11/149,731 and Intl. Pat. Appl. No. PCT/US2007/017905.
The table below presents oral bioavailability and elimination half-life data in the rat for representative compounds of the present invention. The parameters were determined by HPLC-MS after oral administration of an 8 mg/kg dose of the compound, except for compound 822 where a 2 mg/kg dose was used.

in vitro = details: human, Caco-2
Protocol: L. Determination of Caco-2 Permeability
Fully differentiated cell monolayers can be used to assess the membrane transport properties of novel compounds.
Permeability across the Caco-2 cell layer was determined by growing the cells on a membrane placed between two (donor and acceptor) chambers. […] Permeability in this direction represents intestinal absorption. Permeability may also be determined from the basolateral to the apical side of the Caco-2 cell. A higher apical to basolateral Papp, compared to the basolateral to apical Papp, is indicative of carrier-mediated transport.
Permeability (10 μM) for compounds of the invention in the apical to basolateral and basolateral to apical direction were tested in duplicate. Samples will be collected from the donor and acceptor chambers at the beginning (0 min) and following 60 min of incubation at 37° C. and stored frozen at −70° C. until bioanalysis. Samples for each test compound generated from the Caco-2 permeability assay were further analyzed by LC-MS-MS. The permeability of [^3H]-mannitol and [^3H]-propranolol were determined in parallel as controls.
The permeability coefficient (Papp) of each compound and radiolabeled standard was determined using the following equation:
where dQ/dT represents the permeability rate, Ci denotes the initial concentration in the donor compartment, and A represents the surface area of the filter. Ci is determined from the mean concentration of duplicate samples taken prior to addition to the donor compartment. Permeability rates were calculated by plotting the cumulative amount of compound measured in the acceptor compartment over time and determining the slope of the line by linear regression analysis. The duplicate and mean apical to basolateral and basolateral to apical Papp's were reported for each compound and standard.

fasted rats = assay: Gastric emptying in fasted rat model, standard method E; format: in vivo; details: average where repeated
Protocol: E. Gastric Emptying in Fasted Rat Model
To examine the effects of compounds of the invention in a model for gastroparesis, compounds were evaluated for possible effects on gastric emptying in fasted rats. This model is used to determine the potential of compounds of the invention to promote motility in fasted rats.
• 1. Overnight-fasted rats (male, Wistar, 200 g, n=5/group) were given a meal (2 mL) of methylcellulose (2%) by intragastric gavage. The meal was labeled with phenol red (0.05%). • 2. Test articles (dosed at various concentrations, typically 1, 3, 10, 30 mg/kg), vehicle and positive control (metoclopramide, a 5-HT ligand and prokinetic agent currently prescribed for the treatment of GI disorders, including gastroparesis) were administered by oral gavage immediately after the meal (time=0). • 3. […] Total phenol red remaining in the stomach was quantified by a colorimetric method at 560 nm. • 5. A 30% or more increase in gastric emptying (as compared to the vehicle control) was considered significant. • 6. One-way ANOVA, Dunnet's post-hoc statistical test was applied Results
The effects of representative compounds of the invention in the rat gastric emptying model described in standard method E are provided in the following table. In cases where an experiment was conducted multiple times, the average of the individual results is presented.

[3] = Plasma protein binding, human plasma (equilibrium dialysis); format: in vitro ADME; details: test concentration 3 μg/mL
Excerpt: J. Plasma Protein Binding
The pharmacokinetic and pharmacodynamic properties of drugs are largely a function of the reversible binding of drugs to plasma or serum proteins such as albumin and α1-acid glycoprotein. In general, only unbound drug is available for diffusion or transport across cell membranes, and for interaction at the pharmacological target. On the other hand, drugs with low plasma protein binding generally have large volumes of distribution and rapid clearance since only unbound drug is available for glomerular filtration and, in some cases, hepatic clearance. Thus, the extent of plasma protein binding can influence efficacy, distribution and elimination. The ideal range for plasma protein binding is in the range of 87-98% for most drug products.
Protein binding studies were performed using human plasma. Briefly, 96-well microplates were used to incubate various concentrations of the test article for 60 min at 37° C. Bound and unbound fractions are separated by equilibrium dialysis, where the concentration remaining in the unbound fraction is quantified by LC-MS or LC-MS-MS analysis. […].
The table below presents protein binding data for representative compounds of the present invention in both human and rat plasma.

hGHS-R1a = target: T1, hGHS-R1a (Homo sapiens, UniProt Q92847); assay: Activation-desensitization profile, Ca2+ flux in HEK293 cells stably expressing hGHS-R1a; format: cell-based; details: higher positive = less desensitization potential
T1 construct: expressed in transfected cells
Protocol: M. Activation-Desensitization Profile
It is well-known that agonists of G-protein coupled receptors can induce desensitization or tachyphylaxis, thereby limiting the potential of agents acting at the receptor as therapeutics for chronic use.
• 1. […] Agonist-induced Ca^+2 fluxes were measured after loading with Ca^+2 indicator Fluo-4-AM. • 3. […] Results

[4] = target: human growth hormone secretagogue receptor (hGHS-R1a) (Homo sapiens, UniProt Q92847); assay: Competitive radioligand binding assay (ghrelin receptor), standard method A
Chain of human growth hormone secretagogue receptor (hGHS-R1a) (Q92847 whole entry): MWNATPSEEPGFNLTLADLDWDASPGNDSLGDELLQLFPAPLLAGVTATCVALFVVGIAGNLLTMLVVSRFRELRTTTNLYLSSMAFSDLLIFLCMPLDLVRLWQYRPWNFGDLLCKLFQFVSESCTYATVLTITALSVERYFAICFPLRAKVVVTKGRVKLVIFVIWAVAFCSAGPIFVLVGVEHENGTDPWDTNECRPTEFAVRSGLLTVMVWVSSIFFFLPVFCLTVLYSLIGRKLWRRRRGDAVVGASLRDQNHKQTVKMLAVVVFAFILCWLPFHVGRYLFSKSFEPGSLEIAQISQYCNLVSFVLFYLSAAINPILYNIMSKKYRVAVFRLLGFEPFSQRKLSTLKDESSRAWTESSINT

T1 sequence (Q92847 whole entry): as above

CC(C)C[C@H]1NC(=O)[C@@H](C)N(C)C(=O)[C@H](C2CCCCC2)NC[C@H]2CCc3cccc(c3O2)CCCNC1=O [Compound 801]
EC50 [1]: 300 nM | Oral Bioavailability (rat, % F) ([2]; oral administration, 8 mg/kg dose, HPLC-MS): 4 % F | bioavailability ([2]; plasma, 8 mg/kg, oral administration (Example 3)): 4% | half-life ([2]; plasma, oral administration, 8 mg/kg dose, HPLC-MS, read-out: Elimination Half-life (t1/2, rat, min)): 42 min | Papp A→B at 60 min, 10 μM (in vitro): 163 ×10⁻⁶ cm/s | Papp B→A at 60 min, 10 μM (in vitro): 110 ×10⁻⁶ cm/s | efflux ratio at 60 min, 10 μM (in vitro): 0.672 | Percent Increase in Gastric Emptying After Oral Administration (fasted rats; dose 3 mg/kg): 27% | Percent Increase in Gastric Emptying After Oral Administration (fasted rats; dose 10 mg/kg): 31% | Percent Increase in Gastric Emptying After Oral Administration (fasted rats; dose 30 mg/kg): 40% | fraction unbound at 60 min, 3 μg/mL [3]: 0.116 | Δ(activity-desensitization) (pEC50 − pDC50) (hGHS-R1a): 3.30 | Ki [4]: ≤ 1 nM
